According to US20160281050A1, “METHODS FOR TREATING A CULTURE OF HAEMATOCOCCUS PLUVIALIS FOR CONTAMINATION USING SALT AND HYDROGEN PEROXIDE” (HELIAE DEVELOPMENT LLC, priority 2015, published 2016):

Columns and labels:
[1] = system: Haematococcus pluvialis (Strain 1) green swimmer cells
From the text: Haematococcus pluvialis cultures containing green swimmer cells in open raceway pond bioreactors [identification numbers (#) 2210 and 2220] disposed in a greenhouse, using paddlewheel mixing, and operating in conditions: reactor volume of 16,000 L; Daily photosynthetically active radiation (PAR) of 57 mol m^−2 d^−1; pH of 7.5; and paddlewheel speed of 40%; were inoculated on the same day and cultured in growth conditions.
The culture of bioreactor #2330 was transferred to open raceway pond bioreactor #2420 disposed in a greenhouse, using paddlewheel mixing, and operating in conditions: reactor volume of 140,000 L; Daily PAR of 58 mol m^−2 d^−1; pH of 7.3; and paddlewheel speed of 70%); but the culture was not treated after the transfer. […] Bacteria including Pseudomonas, Flectobacillus, and Cytophaga were present in the bacterial community in both the bioreactors #2330 and #2420.

chytrids = test: % chytrid infection in flask cultures (Example 6); type: cell-based
Experimental: A series of experiments were conducted to evaluate the effectiveness of hydrogen peroxide alone and in combination with concentrations of salt as a treatment for controlling chytrid infections in Haematococcus pluvialis cultures. […] Bioreactor #2420 had just been inoculated with cells in the green swimmer stage into reddening conditions that comprised of culture medium comprising a 1 ppt concentration of sodium chloride (NaCl). The flask experiment consisted of duplicate untreated controls and duplicate treatments.
The flask cultures contained Haematococcus pluvialis (Strain 1) cells in both the green swimmer stage and early red cyst stage.
The collected samples were inoculated in the green swimmer stage in growth conditions [i.e., in the absence of sodium chloride (NaCl)].
The culture samples were inoculated in the green swimmer stage in growth conditions [i.e., in less than 1 ppt of sodium chloride (NaCl)].
The flask cultures were then diluted 1:3 into reddening media comprising 1 ppt NaCl or 2 ppt NaCl (33.3 mL and 66.6 mL culture media).

[2] = bioreactor #2220, 0.0075 mL/L every 24 hours

hydrogen peroxide [H2O2]
duration of high motility compared with untreated culture #2210 [1, 2]: one day longer | motility retained [1, 2]: 95% | time of chytrid detection compared with untreated culture #2310 ([1]; bioreactor #2320, 0.0075 mL/L every 24 hours): three days later | onset of high amounts of cell lysis ([1]; bioreactor #2320, treated culture): not until five days after the treatment ended | decrease of motility ([1]; bioreactor #2330, 0.0075 mL/L, after the first treatment): about 30% | lysis ([1]; bioreactor #2330, 0.0075 mL/L, after the second treatment): 60% | Chytrid sporangia present, time after hydrogen peroxide treatment ended ([1]; bioreactors #2330/#2420, end of the culture period): 7 days | Chytrid sporangia in the culture ([1]; bioreactors #2330/#2430, 0.0075 mL/L once before and twice after transfer): not detected | time high amounts of cell lysis remained high ([1]; bioreactors #2330/#2430, treatment began after lysis had occurred): 4 days | reduction in % chytrid infection compared to the control (chytrids; 4th experiment, starting 5 days after inoculation (144 h)): 50-90% | Average Chytrid Infection (chytrids; #2210 samples, absence of NaCl, 0.0075 mL/L two times per day, 0 h): 0.0 ± 0.0% | Average Chytrid Infection (chytrids; #2210 samples, absence of NaCl, 0.0075 mL/L two times per day, 24 h): 0.0 ± 0.0% | Average Chytrid Infection (chytrids; #2210 samples, absence of NaCl, 0.0075 mL/L two times per day, 48 h): 0.0 ± 0.0% | Average Chytrid Infection (chytrids; #2210 samples, absence of NaCl, 0.0075 mL/L two times per day, 96 h): 0.0 ± 0.0% | Average Chytrid Infection (chytrids; #2210 samples, absence of NaCl, 0.0075 mL/L two times per day, 120 h): 0.0 ± 0.0% | Average Chytrid Infection (chytrids; #2210 samples, absence of NaCl, 0.0075 mL/L two times per day, 144 h): 4.2 ± 5.9% | Average Chytrid Infection (chytrids; #2210 samples, absence of NaCl, 0.0075 mL/L two times per day, 168 h): 18.3 ± 25.9% | Average Chytrid Infection (chytrids; #2210 samples, absence of NaCl, 0.0075 mL/L two times per day, 192 h): 26.6 ± 37.1% | Average Chytrid Infection (chytrids; #2210 samples, absence of NaCl, 0.0075 mL/L two times per day, 264 h): 51.7 ± 7.1% | Average Chytrid Infection (chytrids; #2310 samples (4th experiment), 1 ppt NaCl, 0.0075 mL/L 3 times per day, 0 h): 0.0 ± 0.0% | Average Chytrid Infection (chytrids; #2310 samples (4th experiment), 1 ppt NaCl, 0.0075 mL/L 3 times per day, 24 h): 0.0 ± 0.0% | Average Chytrid Infection (chytrids; #2310 samples (4th experiment), 1 ppt NaCl, 0.0075 mL/L 3 times per day, 48 h): 0.0 ± 0.0% | Average Chytrid Infection (chytrids; #2310 samples (4th experiment), 1 ppt NaCl, 0.0075 mL/L 3 times per day, 120 h): 1.7 ± 1.7% | Average Chytrid Infection (chytrids; #2310 samples (4th experiment), 1 ppt NaCl, 0.0075 mL/L 3 times per day, 144 h): 18.3 ± 18.5% | Average Chytrid Infection (chytrids; #2310 samples (4th experiment), 1 ppt NaCl, 0.0075 mL/L 3 times per day, 168 h): 17.2 ± 14.4% | Average Chytrid Infection (chytrids; #2310 samples (4th experiment), 1 ppt NaCl, 0.0075 mL/L 3 times per day, 192 h): 32.2 ± 28.1% | Average Chytrid Infection (chytrids; #2310 samples (4th experiment), 1 ppt NaCl, 0.0075 mL/L 3 times per day, 216 h): 44.4 ± 46.8% | Average Chytrid Infection (chytrids; #2420 samples, 1 ppt NaCl, 0.0075 mL/L 2-3 times per day, 0 h): 0.0 ± 0.0% | Average Chytrid Infection (chytrids; #2420 samples, 1 ppt NaCl, 0.0075 mL/L 2-3 times per day, 24 h): 0.0 ± 0.0% | Average Chytrid Infection (chytrids; #2420 samples, 1 ppt NaCl, 0.0075 mL/L 2-3 times per day, 48 h): 0.0 ± 0.0% | Average Chytrid Infection (chytrids; #2420 samples, 1 ppt NaCl, 0.0075 mL/L 2-3 times per day, 72 h): 0.0 ± 0.0% | Average Chytrid Infection (chytrids; #2420 samples, 1 ppt NaCl, 0.0075 mL/L 2-3 times per day, 144 h): 0.0 ± 0.0% | Average Chytrid Infection (chytrids; #2420 samples, 1 ppt NaCl, 0.0075 mL/L 2-3 times per day, 168 h): 0.0 ± 0.0% | Average Chytrid Infection (chytrids; #2420 samples, 1 ppt NaCl, 0.0075 mL/L 2-3 times per day, 197 h): 0.0 ± 0.0% | Average Chytrid Infection (chytrids; #2420 samples, 1 ppt NaCl, 0.0075 mL/L 2-3 times per day, 217 h): 0.0 ± 0.0% | Average Chytrid Infection (chytrids; #2440 samples, 1 ppt salt, 0.0075 mL/L 2-3 times per day, 0 h): 0.0 ± 0.0% | Average Chytrid Infection (chytrids; #2440 samples, 1 ppt salt, 0.0075 mL/L 2-3 times per day, 24 h): 1.7 ± 2.9% | Average Chytrid Infection (chytrids; #2440 samples, 1 ppt salt, 0.0075 mL/L 2-3 times per day, 96 h): 25.0 ± 2.9% | Average Chytrid Infection (chytrids; #2440 samples, 1 ppt salt, 0.0075 mL/L 2-3 times per day, 120 h): 51.7 ± 5.0% | Average Chytrid Infection (chytrids; #2440 samples, 1 ppt salt, 0.0075 mL/L 2-3 times per day, 144 h): 43.9 ± 4.2%
